Measurements published in US20240034737A1, “Heterocyclic Derivatives as P2X7 Receptor Antagonists” (BREYE THERAPEUTICS APS, priority 2020, published 2024).

Legend:
P2X7 receptor = P2X7 receptor (Homo sapiens (Human), UniProt Q99572); assay: Human P2X7 channel calcium-influx assay (Fluo-8 NW, FLIPR TETRA, Bz-ATP stimulation); assay type: cell-based; conditions: HEK-293 cells stably transfected with P2X7 receptor, Low Divalent Cation Assay Buffer, read-out: hP2X7 IC50
In short: (§1)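 HEK-293 cells stably expressing human or mouse P2X7, preloaded with Fluo-8 NW dye for 1 h at RT. Compounds added, Bz-ATP-evoked Ca2+ influx followed as fluorescence kinetics over 5 min on FLIPR TETRA; A438079 served as reference antagonist.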

CYP4503A4 = CYP4503A4 metabolic induction (mRNA expression) in human cryopreserved platable hepatocytes; assay type: in vitro ADME; conditions: 10 μM test compound, two days treatment, mRNA by QuantiGene Plex 2.0
Procedure: In Vitro Evaluation of Test Compounds for CYP4503A4 Metabolic Induction Using Human Liver Hepatocytes.
CYP induction assessment was performed using human cryopreserved platable hepatocytes. Test compound was assessed at three or six different concentrations in duplicate.
A sandwich culture of platable cryopreserved hepatocytes was used with one day recovery period after plating. Assessment of cell morphology and confluency was performed using a phase-contrast microscope for representative wells.
The plated hepatocyte cell monolayers were treated with test compound, negative and positive controls for two days changing medium every 24 hours. On the fourth day, assessment of cell morphology and confluency was repeated to ensure cell monolayer integrity. Assessment of cell morphology and confluency was performed using a phase-contrast microscope for representative wells.
Cell monolayers were assessed for test compound cytotoxicity by an adenosine triphosphate (ATP) content assay in a separate plate.
Expression levels of mRNA for CYP1A2, CYP2B6, and CYP3A4 were evaluated by the QuantiGene® Plex 2.0 methodology.

mP2X7 = mP2X7 (Mus musculus (Mouse), UniProt Q9Z1M0); assay: mP2X7 channel calcium-influx assay (Fluo-8 NW, FLIPR TETRA, Bz-ATP stimulation); assay type: cell-based
mP2X7, sequence (Q9Z1M0 whole entry): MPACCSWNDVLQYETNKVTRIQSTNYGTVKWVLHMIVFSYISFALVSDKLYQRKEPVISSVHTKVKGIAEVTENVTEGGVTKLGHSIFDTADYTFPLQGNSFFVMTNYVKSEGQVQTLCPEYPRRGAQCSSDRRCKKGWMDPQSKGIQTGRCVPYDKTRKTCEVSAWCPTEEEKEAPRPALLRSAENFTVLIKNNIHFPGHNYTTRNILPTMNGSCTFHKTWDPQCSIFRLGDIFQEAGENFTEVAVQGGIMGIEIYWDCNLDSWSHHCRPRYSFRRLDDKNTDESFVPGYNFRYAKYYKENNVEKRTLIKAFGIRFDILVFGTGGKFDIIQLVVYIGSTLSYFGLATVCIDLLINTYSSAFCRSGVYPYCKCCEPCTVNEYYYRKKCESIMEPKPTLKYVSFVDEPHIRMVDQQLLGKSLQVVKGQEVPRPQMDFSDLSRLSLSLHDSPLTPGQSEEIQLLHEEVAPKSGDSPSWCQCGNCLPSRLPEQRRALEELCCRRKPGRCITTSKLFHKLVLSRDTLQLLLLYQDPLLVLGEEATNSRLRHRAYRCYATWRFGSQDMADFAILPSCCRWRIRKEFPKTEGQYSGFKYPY
In short: as §1

P2X7 receptor, sequence (Q99572 whole entry): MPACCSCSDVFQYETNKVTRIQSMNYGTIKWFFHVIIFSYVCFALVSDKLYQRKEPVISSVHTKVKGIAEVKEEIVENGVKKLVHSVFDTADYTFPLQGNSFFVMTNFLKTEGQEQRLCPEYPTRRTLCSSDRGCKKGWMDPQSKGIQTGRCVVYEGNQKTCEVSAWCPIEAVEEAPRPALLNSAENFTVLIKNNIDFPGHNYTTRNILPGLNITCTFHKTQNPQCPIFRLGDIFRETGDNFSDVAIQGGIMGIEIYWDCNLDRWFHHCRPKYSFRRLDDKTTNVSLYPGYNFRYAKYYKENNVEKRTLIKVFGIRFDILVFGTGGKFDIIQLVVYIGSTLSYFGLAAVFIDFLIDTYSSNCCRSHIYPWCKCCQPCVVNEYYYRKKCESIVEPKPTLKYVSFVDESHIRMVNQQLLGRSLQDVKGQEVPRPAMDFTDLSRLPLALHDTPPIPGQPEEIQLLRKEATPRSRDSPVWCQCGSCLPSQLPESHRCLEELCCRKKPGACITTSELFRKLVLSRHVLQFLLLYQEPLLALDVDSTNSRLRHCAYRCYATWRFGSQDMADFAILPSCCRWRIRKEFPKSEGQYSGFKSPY

Structure (SMILES) | IC50 (P2X7 receptor) [nM] | CYP4503A4 mRNA fold increase at 10 μM (CYP4503A4) [fold] | IC50 (mP2X7) [nM]
N#Cc1cncc(OCC2CCN(C(CNC(=O)c3c(F)cccc3Cl)c3scnc3C(F)F)CC2)c1 (stereo not drawn) [Example 91, 2-Chloro-N-[2-(4-{[(5-cyanopyridin-3-yl)oxy]methyl}piperidin-1-yl)-2-[4-(difluoromethyl)-1,3-thiazol-5-yl]ethyl]-6-fluorobenzamide] | 39.5 | 7.4 | 38.9
O=C(NCC(c1scnc1C(F)F)N1CCC(Oc2ccncn2)CC1)c1c(F)cccc1Cl (stereo not drawn) [Example 78, 2-Chloro-N-{2-[4-(difluoromethyl)-1,3-thiazol-5-yl]-2-[4-(pyrimidin-4-yloxy)piperidin-1-yl]ethyl}-6-fluorobenzamide] | 73.1 | 3.6 | 180
O=C(NCC(c1scnc1C(F)F)N1CCC(COc2cc(F)ncn2)CC1)c1c(F)cccc1Cl (stereo not drawn) [Example 103, 2-Chloro-N-{2-[4-(difluoromethyl)-1,3-thiazol-5-yl]-2-(4-{[(6-fluoropyrimidin-4-yl)oxy]methyl}piperidin-1-yl)ethyl}-6-fluorobenzamide] | 21.1 | 5.0 | 34
Cc1nsc(OCC2CCN(C(CNC(=O)c3c(F)cccc3Cl)c3scnc3C(F)F)CC2)n1 (stereo not drawn) [Example 85, 2-Chloro-N-{2-[4-(difluoromethyl)-1,3-thiazol-5-yl]-2-(4-{[(3-methyl-1,2,4-thiadiazol-5-yl)oxy]methyl}piperidin-1-yl)ethyl}-6-fluorobenzamide] | 32.4 | 9.7 | 68.7
O=C(NCC(c1scnc1C(F)F)N1CCC(Oc2cncc(Cl)n2)CC1)c1c(F)cccc1Cl (stereo not drawn) [Example 76, 2-Chloro-N-(2-{4-[(6-chloropyrazin-2-yl)oxy]piperidin-1-yl}-2-[4-(difluoromethyl)-1,3-thiazol-5-yl]ethyl)-6-fluorobenzamide] | 43.7 | 5.1 | 28.9
N#Cc1cc(OC2CCN(C(CNC(=O)c3c(F)cccc3Cl)c3scnc3C(F)F)CC2)ccn1 (stereo not drawn) [Example 127, 2-Chloro-N-(2-{4-[(2-cyanopyridin-4-yl)oxy]piperidin-1-yl}-2-[4-(difluoromethyl)-1,3-thiazol-5-yl]ethyl)-6-fluorobenzamide] | 49 | 6.3 | 61.7
O=C(NCC(c1scnc1C(F)F)N1CCC(Oc2cncc3nncn23)CC1)c1c(F)cccc1Cl (stereo not drawn) [Example 45] | 254 | 1.9 | 550
O=C(NCC(c1scnc1C(F)F)N1CCC(COc2nccn3nccc23)CC1)c1c(F)cccc1Cl (stereo not drawn) [Example 116, 2-Chloro-N-{2-[4-(difluoromethyl)-1,3-thiazol-5-yl]-2-[4-({pyrazolo[1,5-a]pyrazin-4-yloxy}methyl)piperidin-1-yl]ethyl}-6-fluorobenzamide] | 28.5 | 9.8 | 11.3
Cc1ccc(OCC2CCN(C(CNC(=O)c3c(F)cccc3Cl)c3scnc3C(F)F)CC2)nn1 (stereo not drawn) [Example 101, 2-Chloro-N-{2-[4-(difluoromethyl)-1,3-thiazol-5-yl]-2-(4-{[(6-methylpyridazin-3-yl)oxy]methyl}piperidin-1-yl)ethyl}-6-fluorobenzamide] | 87.8 | 3.9 | 76.6
O=C(NCC(c1scnc1C(F)F)N1CCC(COc2ccc(F)nn2)CC1)c1c(F)cccc1Cl (stereo not drawn) [Example 104, 2-Chloro-N-{2-[4-(difluoromethyl)-1,3-thiazol-5-yl]-2-(4-{[(6-fluoropyridazin-3-yl)oxy]methyl}piperidin-1-yl)ethyl}-6-fluorobenzamide] | 49.6 | 7.4 | 103
O=C(NCC(c1scnc1C(F)F)N1CCC(COc2cccc(F)n2)CC1)c1c(F)cccc1Cl (stereo not drawn) [Example 124, 2-Chloro-N-{2-[4-(difluoromethyl)-1,3-thiazol-5-yl]-2-(4-{[(6-fluoropyridin-2-yl)oxy]methyl}piperidin-1-yl)ethyl}-6-fluorobenzamide] | 18.1 | 6.9 | 18.5
Cc1cc(COC2CCN(C(CNC(=O)c3c(F)cccc3Cl)c3scnc3C(F)F)CC2)no1 (stereo not drawn) [Example 8, 2-chloro-N-{2-[4-(difluoromethyl)-1,3-thiazol-5-yl]-2-{4-[(5-methyl-1,2-oxazol-3-yl)methoxy]piperidin-1-yl}ethyl}-6-fluorobenzamide] | 47.8 | 2.2 | 170
Cc1cc(OC2CCN(C(CNC(=O)c3c(F)cccc3Cl)c3scnc3C(F)F)CC2)ccn1 (stereo not drawn) [Example 73, 2-Chloro-N-{2-[4-(difluoromethyl)-1,3-thiazol-5-yl]-2-{4-[(2-methylpyridin-4-yl)oxy]piperidin-1-yl}ethyl}-6-fluorobenzamide] | 64.9 | 2.4 | 70.9
O=C(NCC(c1scnc1C(F)F)N1CCC(Oc2ccncc2)CC1)c1c(F)cccc1Cl (stereo not drawn) [Example 3, 2-chloro-N-{2-[4-(difluoromethyl)-1,3-thiazol-5-yl]-2-[4-(pyridin-4-yloxy)piperidin-1-yl]ethyl}-6-fluorobenzamide] | 37.7 | 4.4 | 80.8
O=C(NCC(c1scnc1C(F)F)N1CCC(Oc2cncc(F)c2)CC1)c1c(F)cccc1Cl (stereo not drawn) [Example 5, 2-chloro-N-{2-[4-(difluoromethyl)-1,3-thiazol-5-yl]-2-{4-[(5-fluoropyridin-3-yl)oxy]piperidin-1-yl}ethyl}-6-fluorobenzamide] | 23.7 | 5.0 | 26.9
O=C(NCC(c1scnc1C(F)F)N1CCC(Oc2cc(F)ccn2)CC1)c1c(F)cccc1Cl (stereo not drawn) [Example 81, 2-chloro-N-{2-[4-(difluoromethyl)-1,3-thiazol-5-yl]-2-{4-[(4-fluoropyridin-2-yl)oxy]piperidin-1-yl}ethyl}-6-fluorobenzamide] | 20.1 | 4.8 | 38.1
O=C(NCC(c1scnc1C(F)F)N1CCC(Oc2cccnc2)CC1)c1c(F)cccc1Cl (stereo not drawn) [Example 2, 2-chloro-N-{2-[4-(difluoromethyl)-1,3-thiazol-5-yl]-2-[4-(pyridin-3-yloxy)piperidin-1-yl]ethyl}-6-fluorobenzamide] | 35.9 | 4.8 | 36.9
O=C(NCC(c1scnc1C(F)F)N1CCC(Oc2nccn3cnnc23)CC1)c1c(F)cccc1Cl (stereo not drawn) [Example 46, 2-Chloro-N-{2-[4-(difluoromethyl)-1,3-thiazol-5-yl]-2-(4-{[1,2,4]triazolo[4,3-a]pyrazin-8-yloxy}piperidin-1-yl)ethyl}-6-fluorobenzamide] | 264 | 4.5 | 658
O=C(NCC(c1scnc1C(F)F)N1CCC(COc2nc(C3CC3)ns2)CC1)c1c(F)cccc1Cl (stereo not drawn) [Example 87, 2-Chloro-N-[2-(4-{[(3-cyclopropyl-1,2,4-thiadiazol-5-yl)oxy]methyl}piperidin-1-yl)-2-[4-(difluoromethyl)-1,3-thiazol-5-yl]ethyl]-6-fluorobenzamide] | 36.9 | 6.4 | 30.4
